Test results reported in patent publication US4391828A, “Dibutylorthobenzylmethoxybenzenes and dibutylorthocinnamylmethoxybenzenes as mosquito larvae growth inhibitors” (The United States of America as represented by the …, priority 1982, dated 1983).
Converted amounts (≈) assume the structure as drawn.

Key:
Assay in all cases: Growth-inhibition test on mosquito larvae
[1] = tested on: Anopheles quadrimaculatus; format: in vivo, Anopheles quadrimaculatus (malaria mosquito); details: late third- and early fourth-stage larvae, 7 days, corrected by Abbott's formula; for LC50: 168 h, read-out: LC-50 (concentration that would prevent and/or retard the growth in 50% of the treated larvae)
Description: (§1) Twenty-five late third-and early fourth-stage mosquito larve were placed in a 500-ml glass jar (9X8.5 cm diam) containing 100 ml of well water, 0.05g ground hog supplement for larval food, and a known amount of the test compound in not more than 1.0ml acetone. The jars were covered with cloth netting and held in constant temperature incubators at 26.7°-28.9° C. and 65-75% relative humidity; a low level of illumination (ca. 0.5 foot candles inside the incubators) was maintained during nonworking hours. After seven days, the jars were examined for the number of dead pupae, the number of adults that were dead or unable to complete eclosion and the number of exuvia. […] Tests were replicated for at least one concentration and a control was set with each test series. Several concentrations of each compound were tested so that a dose-response relationship could be established.
(§2) The effectiveness of the compound in inhibiting growth was determined by adding the numbers of dead larvae and pupae and the numbers of adults that were dead, unable to complete eclosion, and malformed. This sum was corrected by Abbott's formula (to adjust for the number of larvae or pupae which would die naturally). The results are expressed as LC 50 or LC 90, i.e., the concentration of growth inhibitor in ppm that would prevent and/or retard the growth in 50% or 90%, respectively, of the treated larvae.

Aedes aegypti = format: in vivo, Aedes aegypti (yellow fever mosquito); details: late third- and early fourth-stage larvae, 7 days, corrected by Abbott's formula
Description: as §1, §2

Anopheles albimanus = format: in vivo; details: late third- and early fourth-stage larvae, 7 days, corrected by Abbott's formula
Description: as §1, §2

Aedes taeniorhynchos = format: in vivo; details: late third- and early fourth-stage larvae, 7 days, corrected by Abbott's formula
Description: as §1, §2

SMILES | LC50 [1] [µg/mL] | LC-90 (concentration that would prevent and/or retard the growth in 90% of the treated larvae) [1] [ppm] | other results
COc1ccc(Cc2cc(C(C)(C)C)cc(C(C)(C)C)c2O)cc1 [Compound B-I, 2,4-bis(1,1-dimethylethyl)-6-[(4-methoxyphenyl)methyl]phenol] | 0.12 (≈ 0.368 µM) | 0.225 | 
CC(C)(C)c1cc(Cc2ccccc2)c(O)c(C(C)(C)C)c1 [A-I] | 0.2 (≈ 0.675 µM) | 1.37 | 
CCOc1c(C(C)c2ccccc2)cc(C(C)(C)C)cc1C(C)(C)C (stereo not drawn) [A-II] |  | > 1.0 | 
CCOc1c(CC=Cc2ccccc2)cc(C(C)(C)C)cc1C(C)(C)C [C-II] | 0.189 (≈ 0.539 µM) | 1.042 | 
CC(C)(C)c1cc(CC=Cc2ccccc2)c(O)c(C(C)(C)C)c1 [C-I] | 0.152 (≈ 0.471 µM) | 0.399 | 
COc1ccc(C(C)c2cc(C(C)(C)C)cc(C(C)(C)C)c2OC)cc1 (stereo not drawn) [B-IV] | 0.242 (≈ 0.683 µM) | 0.556 | 
COc1ccc(Cc2cc(C(C)(C)C)cc(C(C)(C)C)c2OC)cc1 [Compound B, 2,4-Bis (1,1-dimethylethyl)-6-[(4-methoxyphenyl)methyl]-methoxybenzene] |  | 0.032 | LC-50 (Aedes aegypti): 0.005 ppm; LC-90 (Aedes aegypti): 0.099 ppm; LC-50 (Anopheles albimanus): .005 ppm; LC-90 (Anopheles albimanus): 0.009 ppm; LC-50 (Aedes taeniorhynchos): 0.009 ppm; LC-90 (Aedes taeniorhynchos): 0.023 ppm
COc1c(C(C)c2ccccc2)cc(C(C)(C)C)cc1C(C)(C)C (stereo not drawn) [A-III] |  | > 1.0 | 
CCOc1c(C(C)c2ccc(OC)cc2)cc(C(C)(C)C)cc1C(C)(C)C (stereo not drawn) [B-V] |  | > 1.0 | 
CCOc1c(Cc2ccc(OC)cc2)cc(C(C)(C)C)cc1C(C)(C)C [B-II] | 0.074 (≈ 0.209 µM) | 0.285 | 
COc1c(Cc2ccccc2)cc(C(C)(C)C)cc1C(C)(C)C [A, 2,4-Bis(1,1-dimethylethyl)-6-(phenylmethyl)methoxybenzene] | 0.065 (≈ 0.209 µM) | 0.092 | LC-50 (Anopheles albimanus): 0.014 ppm; LC-90 (Anopheles albimanus): 0.025 ppm; LC-50 (Aedes taeniorhynchos): 0.026 ppm; LC-90 (Aedes taeniorhynchos): 0.164 ppm
COc1c(CC=Cc2ccccc2)cc(C(C)(C)C)cc1C(C)(C)C [C, 2,4-Bis(1,1-dimethylethyl)-6-(3-phenyl-2-propenyl)methoxybenzene] | 0.026 (≈ 0.0773 µM) | 0.089 | 
